Results: PMC12135709, “Discovery of the First Selective and Potent PROTAC Degrader for the Pseudokinase TRIB2” (European journal of medicinal chemistry, 2024)

Molecular target: T1, TRIB2 (Homo sapiens, UniProt Q92519)
T1 sequence (Q92519 1-343): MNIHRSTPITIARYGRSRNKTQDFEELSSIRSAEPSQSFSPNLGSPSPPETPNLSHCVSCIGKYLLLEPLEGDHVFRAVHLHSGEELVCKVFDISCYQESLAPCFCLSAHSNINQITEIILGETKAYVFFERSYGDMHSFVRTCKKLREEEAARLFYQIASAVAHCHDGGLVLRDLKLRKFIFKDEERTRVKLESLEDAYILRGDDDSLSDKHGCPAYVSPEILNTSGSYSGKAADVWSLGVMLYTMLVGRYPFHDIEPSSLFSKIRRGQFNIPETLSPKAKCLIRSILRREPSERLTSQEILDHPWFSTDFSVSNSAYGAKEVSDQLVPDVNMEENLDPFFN
Test: radiometric […]-ATP kinase assay with recombinant human TRIB2; supported by CETSA in PC3 cells
Type: biochemical

In the case of `O=C1CCC(N2C(=O)c3ccc(NCCCCCCCCCC(=O)N4CCc5ccc(NC(=O)c6n[nH]c7ccc(-c8cccnc8F)cc67)cc5C4)cc3C2=O)C(=O)N1` (centres unmarked) [5k, N-(2-(10-((2-(2,6-dioxopiperidin-3-yl)-1,3-dioxoisoindolin-5-yl)amino)-decanoyl)-1,2,3,4-tetrahydroisoquinolin-7-yl)-5-(2-fluoropyridin-3-yl)-1H-indazole-3-carboxamide], the IC50 is reported as 65.2 nM.

For `O=C(Nc1ccc2c(c1)CNCC2)c1n[nH]c2ccc(-c3cccnc3F)cc12` [compound 1, 5-(2-fluoropyridin-3-yl)-N-(1,2,3,4-tetrahydroisoquinolin-7-yl)-1H-indazole-3-carboxamide], the IC50 was 0.74 nM.
